In ChEMBL document CHEMBL4321837, “Discovery of Potent and Orally Effective Dual Janus Kinase 2/FLT3 Inhibitors for the Treatment of Acute Myelogenous Leukemia and Myeloproliferative Neoplasms” (J Med Chem, 2019):
pIC50: −log10 of the molar value. The source made the active and inactive calls. No cut-off for these calls is given here.

How the values were obtained:
[1] = biological target: T1, Tyrosine-protein kinase JAK3 (Homo sapiens, UniProt P52333); experiment: Inhibition of human JAK3 (781 to end residues) using GGEEEEYFELVKK as substrate after 40 mins in presence of [gamma33P]-ATP by scintillation counting based radiometric assay
T1 sequence (P52333 whole entry): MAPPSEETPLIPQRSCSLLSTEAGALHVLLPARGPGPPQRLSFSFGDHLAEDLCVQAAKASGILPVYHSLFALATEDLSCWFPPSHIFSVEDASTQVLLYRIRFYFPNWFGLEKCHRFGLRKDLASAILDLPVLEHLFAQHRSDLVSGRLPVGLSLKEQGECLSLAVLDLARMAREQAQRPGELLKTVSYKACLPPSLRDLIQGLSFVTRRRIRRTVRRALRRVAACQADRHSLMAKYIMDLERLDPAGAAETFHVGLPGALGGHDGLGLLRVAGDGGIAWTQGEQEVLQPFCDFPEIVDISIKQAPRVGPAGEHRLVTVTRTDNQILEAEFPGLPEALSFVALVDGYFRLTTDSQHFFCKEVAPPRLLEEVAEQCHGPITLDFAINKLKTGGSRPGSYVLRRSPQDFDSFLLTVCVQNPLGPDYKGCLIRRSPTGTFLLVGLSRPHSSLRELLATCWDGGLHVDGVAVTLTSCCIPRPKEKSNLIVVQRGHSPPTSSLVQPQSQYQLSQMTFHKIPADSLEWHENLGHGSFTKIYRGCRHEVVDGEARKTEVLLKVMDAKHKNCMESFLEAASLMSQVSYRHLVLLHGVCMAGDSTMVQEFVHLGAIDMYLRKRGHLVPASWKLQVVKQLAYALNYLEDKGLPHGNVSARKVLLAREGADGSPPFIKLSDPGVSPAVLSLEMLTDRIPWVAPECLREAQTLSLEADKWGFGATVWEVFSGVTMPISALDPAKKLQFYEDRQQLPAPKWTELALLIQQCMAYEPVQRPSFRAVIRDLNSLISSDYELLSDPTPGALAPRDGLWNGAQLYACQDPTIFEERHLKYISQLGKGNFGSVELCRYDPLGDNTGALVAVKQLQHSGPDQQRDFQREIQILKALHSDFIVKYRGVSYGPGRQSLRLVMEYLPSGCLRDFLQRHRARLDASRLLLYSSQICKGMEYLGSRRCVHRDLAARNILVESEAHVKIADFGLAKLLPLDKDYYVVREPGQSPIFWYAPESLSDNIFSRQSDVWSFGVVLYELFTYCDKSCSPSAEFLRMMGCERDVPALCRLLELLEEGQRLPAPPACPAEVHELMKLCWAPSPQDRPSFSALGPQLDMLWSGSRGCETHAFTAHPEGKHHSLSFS

[2] = Tmax in Sprague-Dawley rat at 5 mg/kg, po measured up to 24 hrs by LC/MS/MS analysis; assay type: ADME, organism-based; conditions: in vivo, 24 h
[3] = Oral bioavailability in Sprague-Dawley rat at 5 mg/kg measured up to 24 hrs by LC/MS/MS analysis; assay type: ADME, organism-based; conditions: in vivo
[4] = biological target: Vascular endothelial growth factor receptor 1 (Homo sapiens, UniProt P17948); experiment: Inhibition of recombinant human FLT1 (783 to end residues) using KKKSPGEYVNIEF as substrate incubated for 40 mins in presence of [gamma33P]-ATP by scintillation counting based radiometry assay
Chain of Vascular endothelial growth factor receptor 1 (P17948 whole entry): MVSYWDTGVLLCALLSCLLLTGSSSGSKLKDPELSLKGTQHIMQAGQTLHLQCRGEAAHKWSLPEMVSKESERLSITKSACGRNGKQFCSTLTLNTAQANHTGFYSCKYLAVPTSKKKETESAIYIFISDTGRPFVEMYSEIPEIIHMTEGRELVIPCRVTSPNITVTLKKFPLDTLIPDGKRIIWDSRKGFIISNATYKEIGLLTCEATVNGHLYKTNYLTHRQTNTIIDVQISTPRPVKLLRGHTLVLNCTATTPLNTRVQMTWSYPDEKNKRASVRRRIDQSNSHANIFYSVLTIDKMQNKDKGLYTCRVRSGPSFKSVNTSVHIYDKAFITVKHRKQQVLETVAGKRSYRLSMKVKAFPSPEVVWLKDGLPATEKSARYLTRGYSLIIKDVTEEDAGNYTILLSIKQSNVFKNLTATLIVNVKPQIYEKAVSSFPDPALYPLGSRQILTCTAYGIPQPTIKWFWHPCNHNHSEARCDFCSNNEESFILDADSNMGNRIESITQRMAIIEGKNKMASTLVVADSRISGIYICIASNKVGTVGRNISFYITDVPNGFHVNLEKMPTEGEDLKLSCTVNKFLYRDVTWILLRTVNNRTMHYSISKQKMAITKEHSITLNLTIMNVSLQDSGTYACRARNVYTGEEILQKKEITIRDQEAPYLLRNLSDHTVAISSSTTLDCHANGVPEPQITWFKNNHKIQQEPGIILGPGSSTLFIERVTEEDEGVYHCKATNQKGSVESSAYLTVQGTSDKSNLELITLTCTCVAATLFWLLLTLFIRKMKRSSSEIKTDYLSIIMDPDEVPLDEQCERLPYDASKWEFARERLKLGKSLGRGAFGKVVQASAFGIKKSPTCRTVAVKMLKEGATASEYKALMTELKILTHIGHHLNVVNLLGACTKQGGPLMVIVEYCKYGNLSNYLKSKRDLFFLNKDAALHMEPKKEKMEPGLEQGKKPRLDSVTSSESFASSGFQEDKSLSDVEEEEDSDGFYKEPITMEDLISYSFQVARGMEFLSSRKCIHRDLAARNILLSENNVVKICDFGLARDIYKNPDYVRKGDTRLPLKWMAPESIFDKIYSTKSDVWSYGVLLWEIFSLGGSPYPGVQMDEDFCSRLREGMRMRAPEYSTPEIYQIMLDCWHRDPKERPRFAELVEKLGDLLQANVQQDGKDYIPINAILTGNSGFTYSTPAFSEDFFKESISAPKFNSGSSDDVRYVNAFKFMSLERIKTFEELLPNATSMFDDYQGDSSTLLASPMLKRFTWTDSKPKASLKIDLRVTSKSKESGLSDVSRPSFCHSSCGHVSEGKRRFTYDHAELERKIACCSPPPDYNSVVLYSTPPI

L02 = experiment: Cytotoxicity against human LO2 cells assessed as cell viability after 72 hrs by MTT assay; assay type: cell-based; conditions: l02, 72 h
[5] = Cytotoxicity against rat H9c2(2-1) cells assessed as cell viability after 72 hrs by MTT assay; assay type: cell-based
NCI-H460 = experiment: Antiproliferative activity against human NCI-H460 cells assessed as reduction in cell growth after 72 hrs by MTT assay; assay type: functional, cell-based
SET-2 = experiment: Antiproliferative activity against human SET2 cells overexpressing JAK2 […] mutant assessed as reduction in cell growth after 72 hrs by MTT assay; assay type: functional, cell-based; conditions: SET-2, 72 h
Cytochrome P450 2E1 = Cytochrome P450 2E1 (Homo sapiens, UniProt P05181); experiment: Inhibition of CYP2E1 (unknown origin); assay type: ADME
Chain of Cytochrome P450 2E1 (P05181 whole entry): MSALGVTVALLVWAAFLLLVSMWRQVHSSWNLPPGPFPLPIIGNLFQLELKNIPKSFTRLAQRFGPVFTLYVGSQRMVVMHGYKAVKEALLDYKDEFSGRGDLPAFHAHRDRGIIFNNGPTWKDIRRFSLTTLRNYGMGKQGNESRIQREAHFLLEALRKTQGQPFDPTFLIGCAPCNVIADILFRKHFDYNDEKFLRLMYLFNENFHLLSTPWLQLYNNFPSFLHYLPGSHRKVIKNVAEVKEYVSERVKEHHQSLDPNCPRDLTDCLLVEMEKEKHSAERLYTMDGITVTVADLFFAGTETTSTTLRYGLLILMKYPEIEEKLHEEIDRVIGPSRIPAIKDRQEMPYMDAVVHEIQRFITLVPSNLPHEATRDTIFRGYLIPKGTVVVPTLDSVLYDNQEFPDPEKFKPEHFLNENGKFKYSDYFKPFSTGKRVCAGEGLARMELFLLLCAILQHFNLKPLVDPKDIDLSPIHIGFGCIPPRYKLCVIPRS

[6] = Half life in human liver microsomes; assay type: ADME, Microsome
[7] = Half life in rat liver microsomes; assay type: ADME, Microsome
MV4-11 [8] = experiment: Inhibition of JAK2/FLT3 ITD mutant in human MV4-11 cells assessed as reduction in JAK2 phosphorylation at 0.2 uM after 2 hrs by Western blot analysis; assay type: cell-based
MV4-11 [9] = experiment: Inhibition of JAK2/FLT3 ITD mutant in human MV4-11 cells assessed as reduction in FLT3 phosphorylation after 2 hrs by Western blot analysis; assay type: cell-based
Homo sapiens = species on record: Homo sapiens; experiment: Inhibition of JAK2 V617F mutant/FLT3 in human SET2 cells assessed as reduction in STAT5 phosphorylation at 0.2 uM after 2 hrs by Western blot analysis; assay type: cell-based
MV4-11 [10] = experiment: Induction of cell cycle arrest in human MV4-11 cells assessed as accumulation at G0/G1 phase at 0.05 uM after 24 hrs by propidium iodide staining based flow cytometry analysis (reference value: 54.49%); assay type: functional
MV4-11 [11] = experiment: Induction of cell cycle arrest in human MV4-11 cells assessed as accumulation at S phase at 0.1 uM after 24 hrs by propidium iodide staining based flow cytometry analysis (reference value: 30.11%); assay type: functional
MV4-11 [12] = experiment: Induction of apoptosis in human MV4-11 cells assessed as late apoptotic cells at 0.2 uM after 24 hrs by Annexin V FITC/PI staining based flow cytometry analysis (reference value: 1.38%); assay type: functional
MV4-11 [13] = experiment: Induction of apoptosis in human MV4-11 cells assessed as viable cells at 0.4 uM after 24 hrs by Annexin V FITC/PI staining based flow cytometry analysis (reference value: 96.3%); assay type: functional; conditions: MV4-11, 24 h, read-out: Activity
MV4-11 [14] = experiment: Induction of apoptosis in human MV4-11 cells assessed as early apoptotic cells at 0.4 uM after 24 hrs by Annexin V FITC/PI staining based flow cytometry analysis (reference value: 2.14%); assay type: functional
MV4-11 [15] = experiment: Induction of apoptosis in human MV4-11 cells assessed as early apoptotic cells at 0.8 uM after 24 hrs by Annexin V FITC/PI staining based flow cytometry analysis (reference value: 2.14%); assay type: functional
MV4-11 [16] = experiment: Induction of apoptosis in human MV4-11 cells assessed as late apoptotic cells at 0.8 uM after 24 hrs by Annexin V FITC/PI staining based flow cytometry analysis (reference value: 1.38%); assay type: functional
MV4-11 [17] = experiment: Induction of apoptosis in human MV4-11 cells assessed as viable cells at 1.6 uM after 24 hrs by Annexin V FITC/PI staining based flow cytometry analysis (reference value: 96.3%); assay type: functional; conditions: MV4-11, 24 h, read-out: Activity
MV4-11 [18] = experiment: Induction of apoptosis in human MV4-11 cells assessed as late apoptotic cells at 1.6 uM after 24 hrs by Annexin V FITC/PI staining based flow cytometry analysis (reference value: 1.38%); assay type: functional
MV4-11 [19] = experiment: Induction of apoptosis in human MV4-11 cells after 24 hrs by Annexin V FITC/PI staining based flow cytometry analysis; assay type: functional, cell-based
[20] = Toxicity in NOD/SCID mouse xenografted with human SET2 cells overexpressing JAK2 V617F mutant assessed as body weight at 30 to 60 mg/kg, po qd for 18 days; assay type: organism-based; conditions: in vivo, 432 h

**Q.** What does the source list for `Cc1cnc(Nc2ccc(N3CCC(N(C)CCO)CC3)c(F)c2)nc1-c1cnn(C(C)C)c1`?
**A.** pIC50 [1]: 7.41; Tmax [2]: 1.5 h; bioavailability [3]: 58%; pIC50 [4]: 7.66; Activity (L02): Non-Toxic; Activity [5]: Non-Toxic; Activity (NCI-H460): Active; pIC50 (SET-2): 6.57; pIC50 (Cytochrome P450 2E1): < 4.00; half-life [6]: 289 min; half-life [7]: 770 min; inhibition (MV4-11 [8]): Active; inhibition (MV4-11 [9]): Dose-dependent effect; inhibition (Homo sapiens): Active; Activity (MV4-11 [10]): 81.64%; Activity (MV4-11 [11]): 10.26%; Activity (MV4-11 [12]): 9.88%; viability at 0.4 µM (MV4-11 [13]): 51.2%; Activity (MV4-11 [14]): 21.2%; Activity (MV4-11 [15]): 23.4%; Activity (MV4-11 [16]): 29.3%; viability at 1.6 µM (MV4-11 [17]): 24.9%; Activity (MV4-11 [18]): 40.9%; Activity (MV4-11 [19]): Dose-dependent effect; Activity [20]: Non-Toxic
